# Results published in patent US20130123285A1, “Compositions and Methods for Targeting A3G:RNA Complexes” (UNIVERSITY OF ROCHESTER, priority 2010, published 2013).
# Legend:
# [1] = system: pseudotyped HIV in TZM-bl-A3G cells; assay: microbe, parasite or virus in culture; format: cell-based
# Source text: (§1) Viral particles were harvested from media of producer cells, normalized based on p24 content and equal number of virus particles were used to infect wild type TZM-bl or TZM-bl-A3G cells. […] However, HIV replication and, consequently Tat expression, are anticipated to be inhibited if dissolution of HMM by A3G activators was able to stimulate host defense.
# [2] = biological target: T1, HMM A3G (A3G:RNA complexes assembled in cells) (Homo sapiens, UniProt Q9HC16); assay: In vitro deaminase activity of HMM isolated from TZM-bl-A3G cells; format: biochemical; conditions: 20 μM
# T1 construct: expressed in transfected cells; host or cells: TZM-bl cells stably transfected with A3G cDNA (TZM-bl-A3G); The HMM fraction was isolated from cell extracts by size exclusion chromatography
# Procedure: Experiments were performed to directly test whether the compounds could activate antiviral activity from HMM in living cells. For this a cell line that expressed A3G as HMM was created. TZM-bl reporter cells were transfected with A3G cDNA and a cell line with stable expression of A3G was selected (TZM-bl-A3G). To verify HMM A3G, cell extracts were prepared from TZM-bl-A3G cells and fractionated by size exclusion chromatography. […] Isolated HMM had low levels of in vitro deaminase activity (4% dC to dU) that could be activated 10-fold by RNase digestion (FIG. 12, top panel). Treatment of HMM with 20 μM Clonidine and Altanserin activated A3G deaminase activity 6- and 8-fold respectively compared to untreated HMM (FIG. 12, bottom panel).
# [3] = biological target: T2, A3G (Homo sapiens, UniProt Q9HC16); assay: In vitro DNA deaminase activity of purified A3G; format: biochemical; conditions: purified A3G treated at varying concentrations
# T2 construct: polyhistidine (C); made in house; host or cells: Baculovirus-infected Sf9 insect cells
# [4] = system: pseudotyped HIV in TZM-bl cells; assay: Single round infectivity of pseudotyped HIV in wild type TZM-bl cells; format: cell-based; conditions: viruses +/- Vif
# Source text: as §1
# [5] = biological target: T3, A3G:RNA complexes (Homo sapiens, UniProt Q9HC16); assay: EMSA of A3G:RNA complexes assembled on radiolabeled RNA (disaggregation of HMM); format: binding; conditions: range of concentrations
# T3 construct: polyhistidine (C); made in house; host or cells: Baculovirus-infected Sf9 insect cells
# Procedure: The Electrophoretic Gel Mobility Shift Assay (EMSA) provides a visual and quantitative measure of the efficiency of A3G-RNA complex formation. EMSA was used initially to determine the optimum buffer conditions, molar ratio of A3G to RNA as well as the temperature and the duration of the complex assembly reaction.
# The four compounds depicted in FIG. 7 were evaluated for their ability to disaggregate A3G:RNA complexes by treating A3G:RNA complexes assembled on radiolabeled RNA with each chemistry over a range of concentrations and then evaluated for size reduction of HMM by EMSA.
# [6] = biological target: APOBEC3G (hA3G) (Homo sapiens, UniProt Q9HC16 Q9HC16:1-384); assay: EMSA; Kd stated for optimal AU-rich RNA with G or C every fourth nucleotide; 99 nt RNA selected for the assay; conditions: tags: C-terminal polyhistidine tag
# Procedure: Experiments were performed to determine what length and sequence of nonspecific RNA would yield the most efficient formation of A3G:RNA complexes. A3G was expressed using the Baculovirus system and purified by nickel affinity chromatography. RNAs varying in GC and AU content were synthesized chemically or transcribed in vitro in lengths varying from 10 to 99 nucleotides (nt). A3G:RNA complexes were assembled in vitro with these RNAs over a range of A3G concentrations and the yield of small and large complexes determined by electrophoretic mobility shift on native gels (EMSA). […] A 99 nt RNA was selected for the HTS assay. The RNA used for the following data had the sequence: […]
# T3 sequence (Q9HC16 whole entry, one chain of several): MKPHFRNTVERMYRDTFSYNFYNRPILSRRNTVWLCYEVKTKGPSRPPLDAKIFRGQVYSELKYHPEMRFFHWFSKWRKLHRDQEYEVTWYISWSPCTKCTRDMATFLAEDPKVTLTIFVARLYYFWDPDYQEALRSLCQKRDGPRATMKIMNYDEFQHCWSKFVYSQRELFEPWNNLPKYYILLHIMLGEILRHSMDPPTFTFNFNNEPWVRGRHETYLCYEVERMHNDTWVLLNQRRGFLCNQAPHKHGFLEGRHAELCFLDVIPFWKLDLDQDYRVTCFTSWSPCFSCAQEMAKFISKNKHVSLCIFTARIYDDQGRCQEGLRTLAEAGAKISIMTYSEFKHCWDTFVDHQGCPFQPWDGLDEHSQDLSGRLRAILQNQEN
# T2 sequence (Q9HC16 whole entry): as the sequence (Q9HC16 whole entry, one chain of several) above
# T1 sequence (Q9HC16 whole entry, one chain of several): as above
# Chain of APOBEC3G (hA3G) (Q9HC16 whole entry, one chain of several): as above
Molecule,"inhibition at 20 µM ([1]; Human immunodeficiency virus 1, read-out: inhibition of viral infectivity) [%]",antiviral activity in TZM-bl-A3G cells ([1]; viruses +/- Vif),activation of A3G deaminase activity compared to untreated HMM [2] [fold],inhibition of A3G deaminase activity [3],antiviral activity in TZM-bl cells [4],dissolution of A3G:RNA aggregates (HMM) by EMSA [5],Kd [6] [nM]
O=C(c1ccc(F)cc1)C1CCN(CCn2c(=S)[nH]c3ccccc3c2=O)CC1 [Altanserin],> 40,induced antiviral activity in TZM-bl-A3G cells,8,none of the hits inhibited A3G deaminase activity,not in TZM-bl cells,completely dissociate RNA from a portion of the A3G complexes,
Clc1cccc(Cl)c1N=C1NCCN1 [Clonidine],,,6,none of the hits inhibited A3G deaminase activity,not in TZM-bl cells,dose-dependent dissolution of A3G:RNA aggregates to faster migrating lower molecular mass (LMM) complexes,
99 nt nonspecific AU-rich RNA (ssRNA) RNA: GGGAACAAAAGCUGGGUACCGGGCCCCCCCUCGAGGUCGAUGCAGACAUAUAUGAUACAAUUUGAUCAGUAUAUUAAAGAUAGUUAUGAUUUACAAGCU,,,,,,,30
